By DC50 is commonly meant the midpoint of the concentration-degradation curve. The low end stands for a more potent degrader, the high end for a less potent degrader.

T1 sequence (P27540 whole entry): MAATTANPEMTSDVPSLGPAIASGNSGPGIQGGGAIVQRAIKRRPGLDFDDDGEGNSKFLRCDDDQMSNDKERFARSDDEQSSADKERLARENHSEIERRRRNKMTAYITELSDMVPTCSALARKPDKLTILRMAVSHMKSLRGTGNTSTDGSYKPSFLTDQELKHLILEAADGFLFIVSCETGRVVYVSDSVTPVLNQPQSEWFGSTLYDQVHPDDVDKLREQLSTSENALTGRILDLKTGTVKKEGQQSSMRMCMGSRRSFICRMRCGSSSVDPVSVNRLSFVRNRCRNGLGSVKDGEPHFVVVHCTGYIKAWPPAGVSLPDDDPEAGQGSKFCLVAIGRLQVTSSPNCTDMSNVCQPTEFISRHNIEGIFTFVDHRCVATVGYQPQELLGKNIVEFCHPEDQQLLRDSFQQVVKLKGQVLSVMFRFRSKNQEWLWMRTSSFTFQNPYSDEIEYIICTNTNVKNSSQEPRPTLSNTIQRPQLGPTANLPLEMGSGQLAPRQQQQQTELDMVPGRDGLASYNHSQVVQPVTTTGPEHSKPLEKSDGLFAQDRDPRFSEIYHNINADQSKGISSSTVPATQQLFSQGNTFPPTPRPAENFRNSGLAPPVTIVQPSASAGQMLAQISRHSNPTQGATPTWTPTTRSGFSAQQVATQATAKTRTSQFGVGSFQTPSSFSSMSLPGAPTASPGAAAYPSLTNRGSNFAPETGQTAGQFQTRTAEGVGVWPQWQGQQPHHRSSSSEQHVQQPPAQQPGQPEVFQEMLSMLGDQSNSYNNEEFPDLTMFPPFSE

The test has as its target T1, ARNT (Homo sapiens, UniProt P27540).
T1 construct: an sgRNA targeting the C-terminus of the ARNT gene near the stop codon; endogenous in cells; host or cells: HEK293 ARNT-HiBiT knock-in, homozygous clone
Description: ARNT degradation in a HiBiT system (HEK293 ARNT-HiBiT Knock-In cell line). The class given is cell-based. As to conditions: half-maximal degradation concentration; HEK293 ARNT-HiBiT KI cells, 4h of treatment, luminescence. How it is done:
Compounds of Formula (I) were tested for ARNT degradation in a HiBiT system. A HEK293 ARNT-HiBiT Knock-In cell line was generated using CRISPR/Cas9 technology. Briefly, HEK293 cells were electroporated with the Neon system with an sgRNA targeting the C-terminus of the ARNT gene near the stop codon ([…] (SEQ ID NO: 1); chr 1: 150,812,014-150,812,034) and the HiBiT donor DNA template (80 nucleotides homology arms upstream and downstream of the insert site, with a GSGS (SEQ ID NO: 2) linker). A homozygous clone was selected after Sanger sequencing, and genetic edition was further validated using Nano-Glo HiBiT blotting system. HEK293 ARNT-HiBiT KI cells were cultured in DMEM+10% FBS at 37° C. and 5% CO2. For the assay, cells were seeded at 10,000 cells/well in white 384 plates (Corning #3570) in 22.5 μl of culture medium without phenol red. Test compounds were spotted in 384-well plates by an acoustic dispenser (10 concentrations, semi-log dilution, in 100% DMSO). Before treatment, compounds were diluted 1:100 or 1:1,000 in culture medium without phenol red, and cells were treated with 2.5 μl of diluted compounds 18h after seeding (final top concentration: 3 or 0.3 μM). After 4h of treatment, plates were equilibrated at room temperature for 30 min, and 25 μl of NANO-GLO® HiBiT Lytic reagent were added per well. Luminescence was measured on a plate reader 15 min after incubation with the detection reagent. Data were analyzed using the Genedata Screener Software version 19, and normalization was performed using the DMSO treated wells as Neutral Control and medium only (without cells) wells as Scale Reference. For curve fitting, the smart fit condensing method with a 4-parameters Hill model was used and the half-maximal degradation concentration (DC50) was calculated.
In general terms: With HiBiT, luminescence reflects the tagged protein that the partner subunit can reach.
In the case of `C[C@@H]1c2cc(C(=O)N3Cc4cc(C(F)(F)F)ccc4[C@@H]3C)c(F)cc2C(=O)N1[C@H]1CCC(=O)NC1=O` [Compound 20, (S)-3-((R)-5-fluoro-1-methyl-6-((S)-1-methyl-5-(trifluoromethyl)isoindoline-2-carbonyl)-3-oxoisoindolin-2-yl)piperidine-2,6-dione], the DC50 amounted to 1.3 nM.

On to `C[C@@H]1c2cc(C(=O)N3Cc4cc(F)c(F)cc4[C@@H]3C)ccc2C(=O)N1[C@H]1CCC(=O)NC1=O` [Compound 21, (S)-3-((R)-5-((S)-5,6-difluoro-1-methylisoindoline-2-carbonyl)-3-methyl-1-oxoisoindolin-2-yl)piperidine-2,6-dione], for which the DC50 was found to be 1.3 nM.

With `COc1c(Br)ccc2c1CN(C(=O)c1ccc3c(c1)[C@@H](C)N([C@H]1CCC(=O)NC1=O)C3=O)[C@H]2C` [Compound 22, (S)-3-((R)-5-((S)-5-bromo-4-methoxy-1-methylisoindoline-2-carbonyl)-3-methyl-1-oxoisoindolin-2-yl)piperidine-2,6-dione], it took 1.3 nM to reach half-maximal degradation (DC50).

Turning to `CCOc1ccc2c(c1C)CN(C(=O)c1ccc3c(c1)[C@@H](C)N([C@H]1CCC(=O)NC1=O)C3=O)[C@H]2C` [Compound 23, (S)-3-((R)-5-((S)-5-ethoxy-1,4-dimethylisoindoline-2-carbonyl)-3-methyl-1-oxoisoindolin-2-yl)piperidine-2,6-dione], the DC50 is 1.3 nM.

Take `C[C@@H]1c2cc(C(=O)N3Cc4c(ccc(Br)c4Cl)[C@@H]3C)ccc2C(=O)N1[C@H]1CCC(=O)NC1=O` [Compound 24, (S)-3-((R)-5-((S)-5-bromo-4-chloro-1-methylisoindoline-2-carbonyl)-3-methyl-1-oxoisoindolin-2-yl)piperidine-2,6-dione]: the DC50 worked out at 1.3 nM.

On to `Cc1ccc2c(c1F)CN(C(=O)c1cc3c(cc1F)C(=O)N([C@H]1CCC(=O)NC1=O)[C@@H]3C)[C@H]2C` [Compound 25, (S)-3-((R)-5-fluoro-6-((S)-4-fluoro-1,5-dimethylisoindoline-2-carbonyl)-1-methyl-3-oxoisoindolin-2-yl)piperidine-2,6-dione], for which the DC50 was determined as 1.6 nM.

`Cc1ccc2c(c1F)CN(C(=O)c1ccc3c(c1)[C@@H](C)N([C@H]1CCC(=O)NC1=O)C3=O)[C@H]2C` [Compound 26, (S)-3-((R)-5-((S)-4-fluoro-1,5-dimethylisoindoline-2-carbonyl)-3-methyl-1-oxoisoindolin-2-yl)piperidine-2,6-dione] returned a DC50 of 1.7 nM.

Compound `C[C@@H]1c2cc(C(=O)N3Cc4ccc(F)cc4[C@@H]3C)ccc2C(=O)N1[C@H]1CCC(=O)NC1=O` [Compound 27, (S)-3-((R)-5-((S)-6-fluoro-1-methylisoindoline-2-carbonyl)-3-methyl-1-oxoisoindolin-2-yl)piperidine-2,6-dione] gave a DC50 of 1.7 nM.

In turn, `COc1ccc2c(c1)CN(C(=O)c1ccc3c(c1)[C@@H](C)N([C@H]1CCC(=O)NC1=O)C3=O)[C@H]2CN(C)C` [Compound 28, (S)-3-((R)-5-((R)-1-((dimethylamino)methyl)-5-methoxyisoindoline-2-carbonyl)-3-methyl-1-oxoisoindolin-2-yl)piperidine-2,6-dione] came in with a DC50 of 1.7 nM.

Compound `C[C@@H]1c2c(ccc(C(=O)N3Cc4ccccc4[C@@H]3CN(C)C)c2F)C(=O)N1[C@H]1CCC(=O)NC1=O` [Compound 29, (S)-3-((R)-5-((R)-1-((dimethylamino)methyl)isoin-doline-2-carbonyl)-4-fluoro-3-methyl-1-oxoisoindolin-2-yl)piperidine-2,6-dione] showed a DC50 of 1.8 nM.

With `C[C@@H]1c2cc(C(=O)N3Cc4c(ccc(Cl)c4F)[C@@H]3C)ccc2C(=O)N1[C@H]1CCC(=O)NC1=O` [Compound 30, (S)-3-((R)-5-((S)-5-chloro-4-fluoro-1-methylisoindoline-2-carbonyl)-3-methyl-1-oxoisoindolin-2-yl)piperidine-2,6-dione], the DC50 was 1.9 nM.

For the origin of these results see patent publication US20250368620A1, “ARNT Degrading Compounds and Uses Thereof” (Celgene Corporation, priority 2024, published 2025).
